Patent publication US12404304B1, “Telomerase reverse transcriptase (TERT) expression enhancing compounds and methods for using the same” (Sierra Sciences, LLC, priority 2007, dated 2025)
Where two headings read alike, the source gives them in different places.

Assays:
[1] = system: human TERT expression (hTERT mRNA); assay: Quantitative real-time RT-PCR of hTERT mRNA expression (Ct, transcripts) in compound-treated cells; type: cell-based
How it was run: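 Read-out is cycle threshold, the cycle at which probe fluorescence released by Taq 5′-nuclease activity crosses a set level; Ct falls as hTERT mRNA rises. cDNA of treated and untreated cells was compared, with starting transcripts quantified against a known-cDNA standard curve.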

viable cells in culture [2] = system: viable cells in culture
viable cells in culture [3] = assay: Cell viability assay (CellTiter-Glo Luminescent Cell Viability Assay, ATP quantitation, percent of vehicle control)

SMILES | Average Number of hTERT Transcripts [1] | Average Cell Viability after 24 Hours (% DMSO) (viable cells in culture [2]) | Average Cell Viability after 24 Hours (% DMSO) (viable cells in culture [3])
Fc1cc(Br)cc2c1NC(c1cccnc1)C1CC=CC21 (centres unmarked) [compound 1457] | 12.20 | 57.76 % DMSO | –
Fc1cc(F)c2c(c1)C1C=CCC1C(c1cccnc1)N2 (centres unmarked) [compound 1463] | 174.29 | 62.06 % DMSO | –
O=C(NCCc1c[nH]cn1)c1cc(-c2cccs2)on1 [compound 1523] | 513.46 | 87.71 % DMSO | –
CCOC(=O)c1c(NC(=O)CCN2C(=O)c3ccccc3C2=O)sc2c1CCC(C)C2 (centres unmarked) [compound 1543] | 3.71 | – | 82.75 % DMSO
OCCN1CCN(c2ncnc3scc(-c4ccccc4)c23)CC1 [compound 1544] | 3.85 | – | 104.59 % DMSO
CC1CCc2c(sc3ncnc(N4CCCC(C)C4)c23)C1 (centres unmarked) [compound 1545] | 4.40 | – | 43.72 % DMSO
Cc1ccccc1OCC(=O)OCc1ccc([N+](=O)[O-])cc1 [compound 1548] | 5.77 | – | 99.62 % DMSO
COC(=O)c1ccc(COC(=O)CCS(=O)(=O)c2ccc(C)cc2)cc1 [compound 1549] | 8.60 | – | 99.71 % DMSO
C=CCN(CC=C)CCCOc1ccccc1 [compound 1550] | 12.90 | – | 96.87 % DMSO
COC(=O)COc1ccc(S(=O)(=O)NCc2ccc(C)cc2)cc1 [compound 1551] | 16.60 | – | 40.32 % DMSO
c1ccc(-c2nc3ccccn3c2Nc2ccc3c(c2)OCCO3)nc1 [compound 1552] | 21.09 | – | 64.55 % DMSO
O=C(COc1ccccc1)Nc1ccc(C(=O)NCC2COc3ccccc3O2)cc1 (centres unmarked) [compound 1553] | 23.58 | – | 77.33 % DMSO
Cc1ccc(NC(=O)CCC(=O)OCC(=O)c2ccc(Br)cc2)c(C)c1 [compound 1554] | 46.62 | – | 71.31 % DMSO
CC(C)(C)c1cc(-c2nc3ccccc3[nH]2)c(O)c(-c2nc3ccccc3[nH]2)c1 [compound 1555] | 52.10 | – | 90.08 % DMSO
CSc1nc(C2CC2)cc(-c2ccccc2)c1C#N [compound 1556] | 85.40 | – | 90.02 % DMSO
NCCC(=O)N[C@@H](Cc1cnc[nH]1)C(=O)O [compound 1557] | 54.80 | – | 97.77 % DMSO
